Results on nine compounds are retold here after patent US6794560B2, “Nucleic acid encoding GAI gene of Arabidopsis thaliana” (Pioneer Hi-Bred International, Inc., priority 1996, dated 2004).

Molecules are shown by their SMILES.

Test [1] deals with stimulation of cell elongation, leaf senescence or elicitation of the cereal aleurone α-amylase response. Particulars: structure-activity statement; cited from earlier work.
A further test concerns gai mutants. To be noted: cited from earlier work.
A further test has as its system gai-t6 mutant. The experiment in a line: growth on medium containing paclobutrazol. It counts as in vivo, Arabidopsis thaliana. Particulars: grown on medium containing paclobutrazol. From the text:
The slender mutants of pea and barley are resistant to the dwarfing effects of paclobutrazol^38-42, as is the Arabidopsis constitutive GA-response mutant spy^43,44. Thus, in these mutants stem elongation is at least partially uncoupled from the GA-mediated control characteristic of normal plants. […] Put another way, a GAI null mutant appears to require less endogenous GA to achieve a certain degree of growth than does a normal plant. GA-dependency is not completely abolished by gai-t6 possibly because the products of genes related in sequence to GAI (see above) can substantially, but not completely, compensate for loss of GAI function.

In another test the target is T1, kaurene oxidase reaction (Arabidopsis thaliana, UniProt Q93ZB2).
T1 sequence (Q93ZB2 1-509): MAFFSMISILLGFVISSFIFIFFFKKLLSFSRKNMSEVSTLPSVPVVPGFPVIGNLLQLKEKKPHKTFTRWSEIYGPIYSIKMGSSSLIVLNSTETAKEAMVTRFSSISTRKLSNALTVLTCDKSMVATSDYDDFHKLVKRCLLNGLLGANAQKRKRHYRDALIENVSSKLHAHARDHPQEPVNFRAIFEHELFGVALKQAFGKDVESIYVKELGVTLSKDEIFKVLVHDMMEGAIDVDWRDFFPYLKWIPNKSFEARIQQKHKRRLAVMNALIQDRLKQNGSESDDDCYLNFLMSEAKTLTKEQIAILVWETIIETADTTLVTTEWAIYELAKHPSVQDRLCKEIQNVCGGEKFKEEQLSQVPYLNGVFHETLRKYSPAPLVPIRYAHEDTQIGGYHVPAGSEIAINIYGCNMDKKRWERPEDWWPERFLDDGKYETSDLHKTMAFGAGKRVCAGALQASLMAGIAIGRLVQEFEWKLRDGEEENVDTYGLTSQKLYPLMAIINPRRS
Particulars: cited from earlier work.

For the next test, the system named is plants. Particulars: reduces endogenous GA levels; cited from earlier work.

As to `C=C1C[C@]23C[C@H]1CC[C@H]2[C@@]12C[C@H](O)C[C@@](C)(C(=O)O1)[C@H]2[C@@H]3C(=O)O` [GA51], in test [1], the “biological activity of gibberellin” value is recorded as “inactivity”.

Turning to `C=C1C[C@]23C[C@H]1CC[C@H]2[C@@]12C[C@H](O)[C@H](O)[C@@](C)(C(=O)O1)[C@H]2[C@@H]3C(=O)O` [GA34], the “biological activity of gibberellin” value in test [1] is listed as “inactivity”.

With `C=C1C[C@]23C[C@@]1(O)CC[C@H]2[C@@]12C[C@H](O)[C@H](O)[C@@](C)(C(=O)O1)[C@H]2[C@@H]3C(=O)O` [GA8], in test [1], the “biological activity of gibberellin” value is on record as “inactivity”.

As to `C=C1C[C@]23C[C@@]1(O)CC[C@H]2[C@@]12CC[C@H](O)[C@@](C)(C(=O)O1)[C@H]2[C@@H]3C(=O)O` [GA1], in test [1], the “biological activity of gibberellin” value was “high biological activity”. Moreover, the “response of gai mutants to GA treatment” value with gai mutants is “do not respond”.

Take `C=C1C[C@]23C[C@@]1(O)CC[C@H]2[C@@]12C=C[C@H](O)[C@@](C)(C(=O)O1)[C@H]2[C@@H]3C(=O)O` [GA3]: the “response of gai mutants to GA treatment” value in the test with gai mutants is “do not respond”.

Consider `C=C1C[C@]23C[C@H]1CC[C@H]2[C@@]12CC[C@H](O)[C@@](C)(C(=O)O1)[C@H]2[C@@H]3C(=O)O` [GA4], for which the “biological activity of gibberellin” value in test [1] was “high biological activity”. For the same compound, the “response of gai mutants to GA treatment” value in the test with gai mutants is “do not respond”.

Consider `C=C1C[C@]23C[C@@]1(O)CC[C@H]2[C@@]12C[C@H](O)C[C@@](C)(C(=O)O1)[C@H]2[C@@H]3C(=O)O` [GA29], for which the “biological activity of gibberellin” value in test [1] is reported as “inactivity”.

Take `CC(C)(C)[C@@H](O)[C@@H](Cc1ccc(Cl)cc1)n1cncn1` (racemic) [Paclobutrazol]: the “floral bolt stem length of gai-t6 mutants vs GAI control plants” value in the test on gai-t6 mutant was “longer floral bolt stems than GAI control plants”. The “inhibition of GA biosynthesis” value on kaurene oxidase reaction is reported as “specifically inhibits GA biosynthesis”. For the same compound, the “phenotype of plants exposed” value with plants is “conferring a dwarf phenotype”.

Turning to `C=C1C[C@]23C[C@H]1CC[C@H]2[C@@]12C=C[C@H](O)[C@@](C)(C(=O)O1)[C@H]2[C@@H]3C(=O)O` [GA7], the “biological activity of gibberellin” value in test [1] is “high biological activity”.
